PubChem BioAssay (NCI)
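Results reflect a 48-hour exposure of cells in 96-well plates to compound at five concentrations. GI50 marks 50% less growth. TGI: total growth inhibition.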

Key:
Assay in all cases: NCI-60 cell line screen, 48 h
MDA-MB-468 breast = system: MDA-MB-468 breast
SNB-19 CNS = system: SNB-19 CNS
MDA-MB-231 breast = system: MDA-MB-231 breast
MDA-MB-435 = system: MDA-MB-435
NCI-H460 lung = system: NCI-H460 lung
TK-10 renal = system: TK-10 renal
HCT-15 colon = system: HCT-15 colon
HT29 colon = system: HT29 colon
K-562 leukemia = system: K-562 leukemia
HL-60(TB) leukemia = system: HL-60(TB) leukemia
UACC-62 melanoma = system: UACC-62 melanoma
SR leukemia = system: SR leukemia
MALME-3M melanoma = system: MALME-3M melanoma
A498 renal = system: A498 renal
EKVX NSCLC = system: EKVX NSCLC
BT-549 breast = system: BT-549 breast
SK-OV-3 ovarian = system: SK-OV-3 ovarian
SW-620 colon = system: SW-620 colon
HOP-62 NSCLC = system: HOP-62 NSCLC
T-47D breast = system: T-47D breast
NCI-H522 lung = system: NCI-H522 lung
SF-268 CNS = system: SF-268 CNS
SNB-75 CNS = system: SNB-75 CNS
KM12 colon = system: KM12 colon
OVCAR-4 ovarian = system: OVCAR-4 ovarian
SK-MEL-2 melanoma = system: SK-MEL-2 melanoma
SK-MEL-5 melanoma = system: SK-MEL-5 melanoma
OVCAR-3 ovarian = system: OVCAR-3 ovarian
OVCAR-5 ovarian = system: OVCAR-5 ovarian
PC-3 prostate = system: PC-3 prostate
NCI/ADR-RES ovarian = system: NCI/ADR-RES ovarian
SF-539 CNS = system: SF-539 CNS
DU-145 prostate = system: DU-145 prostate
A549 NSCLC = system: A549 NSCLC
SK-MEL-28 melanoma = system: SK-MEL-28 melanoma
MOLT-4 leukemia = system: MOLT-4 leukemia
UO-31 renal = system: UO-31 renal
RXF 393 renal = system: RXF 393 renal
OVCAR-8 ovarian = system: OVCAR-8 ovarian
NCI-H23 lung = system: NCI-H23 lung
LOX IMVI melanoma = system: LOX IMVI melanoma
U251 CNS = system: U251 CNS
CCRF-CEM leukemia = system: CCRF-CEM leukemia
HOP-92 NSCLC = system: HOP-92 NSCLC
HCC-2998 colon = system: HCC-2998 colon
HCT-116 colon = system: HCT-116 colon
SN12C renal = system: SN12C renal
MCF7 breast = system: MCF7 breast
CAKI-1 renal = system: CAKI-1 renal
M14 melanoma = system: M14 melanoma
IGROV1 ovarian = system: IGROV1 ovarian
SF-295 CNS = system: SF-295 CNS
786-0 renal = system: 786-0 renal
RPMI-8226 leukemia = system: RPMI-8226 leukemia
HS 578T breast = system: HS 578T breast
COLO 205 colon = system: COLO 205 colon
UACC-257 melanoma = system: UACC-257 melanoma

## COc1ccc(-c2nc3ccc(-c4nnc(SCc5ccccc5)o4)cc3[nH]2)cc1OC
MDA-MB-468 breast
  GI50: 7.89 µM
  TGI: 38.6 µM
SNB-19 CNS
  GI50: > 100 µM
  TGI: > 100 µM
MDA-MB-231 breast
  GI50: 4.28 µM
  TGI: 23.2 µM
MDA-MB-435
  GI50: 21 µM
  TGI: > 100 µM
NCI-H460 lung
  GI50: 5.67 µM
  TGI: > 100 µM
TK-10 renal
  GI50: 8.62 µM
  TGI: 46.7 µM
HCT-15 colon
  GI50: 13.8 µM
  TGI: > 100 µM
HT29 colon
  GI50: 16.2 µM
  TGI: > 100 µM
K-562 leukemia
  GI50: 28.3 µM
  TGI: > 100 µM
HL-60(TB) leukemia
  GI50: 57.5 µM
  TGI: > 100 µM
UACC-62 melanoma
  GI50: 7.2 µM
  TGI: 43.8 µM
SR leukemia
  GI50: 6.45 µM
  TGI: > 100 µM
MALME-3M melanoma
  GI50: 3.18 µM
  TGI: 11.5 µM
A498 renal
  GI50: > 100 µM
  TGI: > 100 µM
EKVX NSCLC
  GI50: 24.9 µM
  TGI: > 100 µM
BT-549 breast
  GI50: 21.3 µM
  TGI: > 100 µM
SK-OV-3 ovarian
  GI50: > 100 µM
  TGI: > 100 µM
SW-620 colon
  GI50: 17 µM
  TGI: > 100 µM
HOP-62 NSCLC
  GI50: 3.88 µM
  TGI: 23.2 µM
T-47D breast
  GI50: 8.53 µM
  TGI: > 100 µM
NCI-H522 lung
  GI50: 23 µM
  TGI: > 100 µM
SF-268 CNS
  GI50: 32.7 µM
  TGI: > 100 µM
SNB-75 CNS
  GI50: 2.24 µM
  TGI: 7.27 µM
KM12 colon
  GI50: > 100 µM
  TGI: > 100 µM
OVCAR-4 ovarian
  GI50: 3.08 µM
  TGI: 12.3 µM
SK-MEL-2 melanoma
  GI50: > 100 µM
  TGI: > 100 µM
SK-MEL-5 melanoma
  GI50: 7.88 µM
  TGI: > 100 µM
OVCAR-3 ovarian
  GI50: 4.73 µM
  TGI: 88.9 µM
OVCAR-5 ovarian
  GI50: 32.4 µM
  TGI: > 100 µM
PC-3 prostate
  GI50: 19.8 µM
  TGI: > 100 µM
NCI/ADR-RES ovarian
  GI50: 11.1 µM
  TGI: > 100 µM
SF-539 CNS
  GI50: 6.54 µM
  TGI: > 100 µM
DU-145 prostate
  GI50: 9.71 µM
  TGI: > 100 µM
A549 NSCLC
  GI50: 4.8 µM
  TGI: > 100 µM
SK-MEL-28 melanoma
  GI50: 22 µM
  TGI: > 100 µM
MOLT-4 leukemia
  GI50: 27.8 µM
  TGI: > 100 µM
UO-31 renal
  GI50: 57.4 µM
  TGI: > 100 µM
RXF 393 renal
  GI50: 3.6 µM
  TGI: > 100 µM
OVCAR-8 ovarian
  GI50: 5.6 µM
  TGI: > 100 µM
NCI-H23 lung
  GI50: 11 µM
  TGI: 79.9 µM
LOX IMVI melanoma
  GI50: 4.74 µM
  TGI: > 100 µM
U251 CNS
  GI50: 4.72 µM
  TGI: 20.4 µM
CCRF-CEM leukemia
  GI50: 16.7 µM
  TGI: > 100 µM
HOP-92 NSCLC
  GI50: 4.17 µM
  TGI: 94.6 µM
HCC-2998 colon
  GI50: 57 µM
  TGI: > 100 µM
HCT-116 colon
  GI50: 8.32 µM
  TGI: > 100 µM
SN12C renal
  GI50: 7.15 µM
  TGI: > 100 µM
MCF7 breast
  GI50: 13.8 µM
  TGI: > 100 µM
CAKI-1 renal
  GI50: > 100 µM
  TGI: > 100 µM
M14 melanoma
  GI50: 26.5 µM
  TGI: > 100 µM
IGROV1 ovarian
  GI50: 36 µM
  TGI: > 100 µM
SF-295 CNS
  GI50: 5.54 µM
  TGI: > 100 µM
786-0 renal
  GI50: 5.88 µM
  TGI: 40.2 µM
RPMI-8226 leukemia
  GI50: 21.7 µM
  TGI: > 100 µM
HS 578T breast
  GI50: 3.5 µM
  TGI: > 100 µM
COLO 205 colon
  GI50: 38 µM
  TGI: > 100 µM
UACC-257 melanoma
  GI50: 56.4 µM
  TGI: > 100 µM
